Reference: publication PMC5344682, “Tuned SMC Arms Drive Chromosomal Loading of Prokaryotic Condensin” (Molecular Cell, 2017)

Columns and labels:
Assay in all cases: PK/LDH coupled ATPase assay, NADH absorbance, Hill fit
Assay type in all cases: biochemical
[1] = molecular target: T1, Smc (Bs Smc) (Bacillus subtilis, UniProt P51834, DEL436-486/DEL685-735); conditions: 50 mM HEPES-KOH pH 7.5, 50 mM NaCl, 2 mM MgCl2, 25 C, 0.3 uM protein, ATP varied; Mini-Smc(1-435, 487-684, 736-1186), construct taken from plasmid pSG2915
T1 construct: full length 1186 residues, untagged, E. coli BL21-Gold(DE3), homodimer; plasmid pSG1497 pET-22b Smc; no ScpAB or DNA

[2] = molecular target: T2, Smc (Bs Smc) (Bacillus subtilis, UniProt P51834, DEL439-486/DEL685-732); conditions: 50 mM HEPES-KOH pH 7.5, 50 mM NaCl, 2 mM MgCl2, 25 C, 0.3 uM protein, ATP varied; Mini-Smc(1-438, 487-684, 733-1186), construct taken from plasmid pSG2914
T2 construct: full length 1186 residues, untagged, E. coli BL21-Gold(DE3), homodimer; plasmid pSG1497 pET-22b Smc; no ScpAB or DNA

[3] = molecular target: T3, Smc (Bs Smc) (Bacillus subtilis, UniProt P51834, DEL396-486/DEL685-775); conditions: 50 mM HEPES-KOH pH 7.5, 50 mM NaCl, 2 mM MgCl2, 25 C, 0.3 uM protein, ATP varied; Mini-Smc(1-395, 487-684, 776-1186), construct taken from plasmid pSG2917
T3 construct: full length 1186 residues, untagged, E. coli BL21-Gold(DE3), homodimer; plasmid pSG1497 pET-22b Smc; no ScpAB or DNA

[4] = molecular target: T4, Smc (Bs Smc) (Bacillus subtilis, UniProt P51834); conditions: 50 mM HEPES-KOH pH 7.5, 50 mM NaCl, 2 mM MgCl2, 25 C, 0.3 uM protein, ATP varied; peptide insertion, plasmid pSG2966; matching strain printed as smc(1-479)-SGPGGGGGRQYQA-smc(480-1186)
T4 construct: full length 1186 residues, untagged, E. coli BL21-Gold(DE3), homodimer; plasmid pSG1497 pET-22b Smc; no ScpAB or DNA

[5] = molecular target: T4, Smc (Bs Smc); conditions: 50 mM HEPES-KOH pH 7.5, 50 mM NaCl, 2 mM MgCl2, 25 C, 0.3 uM protein, ATP varied; peptide insertion, plasmid pSG2965; matching strain printed as smc(1-394)-SGPGGGGGRQQAS-smc(395-1186)
[6] = molecular target: T5, Smc (Bs Smc) (Bacillus subtilis, UniProt P51834, DEL400-486/DEL685-771); conditions: 50 mM HEPES-KOH pH 7.5, 50 mM NaCl, 2 mM MgCl2, 25 C, 0.3 uM protein, ATP varied; Mini-Smc(1-399, 487-684, 772-1186), construct taken from plasmid pSG2916
T5 construct: full length 1186 residues, untagged, E. coli BL21-Gold(DE3), homodimer; plasmid pSG1497 pET-22b Smc; no ScpAB or DNA
T5 sequence (P51834 other isoform, or with tags, fused parts or gaps DEL400-486/DEL685-771): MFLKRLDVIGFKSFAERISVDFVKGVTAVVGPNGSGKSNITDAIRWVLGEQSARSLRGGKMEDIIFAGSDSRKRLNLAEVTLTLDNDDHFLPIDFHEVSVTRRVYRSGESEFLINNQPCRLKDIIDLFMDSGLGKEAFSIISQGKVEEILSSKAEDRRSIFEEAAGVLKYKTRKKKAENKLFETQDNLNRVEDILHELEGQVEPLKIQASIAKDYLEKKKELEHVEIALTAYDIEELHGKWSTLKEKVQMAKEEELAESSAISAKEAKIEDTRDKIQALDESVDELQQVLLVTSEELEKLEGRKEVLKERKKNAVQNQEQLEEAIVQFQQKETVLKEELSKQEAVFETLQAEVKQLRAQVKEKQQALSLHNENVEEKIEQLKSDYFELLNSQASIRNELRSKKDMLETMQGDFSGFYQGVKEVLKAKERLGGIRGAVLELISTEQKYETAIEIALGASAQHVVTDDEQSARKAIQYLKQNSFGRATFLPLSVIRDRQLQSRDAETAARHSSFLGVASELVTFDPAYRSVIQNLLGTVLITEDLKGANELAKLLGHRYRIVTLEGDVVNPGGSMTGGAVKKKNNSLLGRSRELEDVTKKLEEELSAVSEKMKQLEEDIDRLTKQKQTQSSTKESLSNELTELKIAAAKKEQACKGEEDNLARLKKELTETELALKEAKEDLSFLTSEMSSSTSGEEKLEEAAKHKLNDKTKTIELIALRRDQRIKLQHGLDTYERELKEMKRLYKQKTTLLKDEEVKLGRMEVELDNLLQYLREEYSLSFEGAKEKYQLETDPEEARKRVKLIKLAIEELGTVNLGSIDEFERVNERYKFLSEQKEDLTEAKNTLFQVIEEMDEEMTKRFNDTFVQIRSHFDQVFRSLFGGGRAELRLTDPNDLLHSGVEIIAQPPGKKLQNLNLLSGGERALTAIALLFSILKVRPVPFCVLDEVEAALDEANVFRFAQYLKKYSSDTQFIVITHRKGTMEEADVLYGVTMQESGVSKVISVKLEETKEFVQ

T4 sequence (P51834 whole entry): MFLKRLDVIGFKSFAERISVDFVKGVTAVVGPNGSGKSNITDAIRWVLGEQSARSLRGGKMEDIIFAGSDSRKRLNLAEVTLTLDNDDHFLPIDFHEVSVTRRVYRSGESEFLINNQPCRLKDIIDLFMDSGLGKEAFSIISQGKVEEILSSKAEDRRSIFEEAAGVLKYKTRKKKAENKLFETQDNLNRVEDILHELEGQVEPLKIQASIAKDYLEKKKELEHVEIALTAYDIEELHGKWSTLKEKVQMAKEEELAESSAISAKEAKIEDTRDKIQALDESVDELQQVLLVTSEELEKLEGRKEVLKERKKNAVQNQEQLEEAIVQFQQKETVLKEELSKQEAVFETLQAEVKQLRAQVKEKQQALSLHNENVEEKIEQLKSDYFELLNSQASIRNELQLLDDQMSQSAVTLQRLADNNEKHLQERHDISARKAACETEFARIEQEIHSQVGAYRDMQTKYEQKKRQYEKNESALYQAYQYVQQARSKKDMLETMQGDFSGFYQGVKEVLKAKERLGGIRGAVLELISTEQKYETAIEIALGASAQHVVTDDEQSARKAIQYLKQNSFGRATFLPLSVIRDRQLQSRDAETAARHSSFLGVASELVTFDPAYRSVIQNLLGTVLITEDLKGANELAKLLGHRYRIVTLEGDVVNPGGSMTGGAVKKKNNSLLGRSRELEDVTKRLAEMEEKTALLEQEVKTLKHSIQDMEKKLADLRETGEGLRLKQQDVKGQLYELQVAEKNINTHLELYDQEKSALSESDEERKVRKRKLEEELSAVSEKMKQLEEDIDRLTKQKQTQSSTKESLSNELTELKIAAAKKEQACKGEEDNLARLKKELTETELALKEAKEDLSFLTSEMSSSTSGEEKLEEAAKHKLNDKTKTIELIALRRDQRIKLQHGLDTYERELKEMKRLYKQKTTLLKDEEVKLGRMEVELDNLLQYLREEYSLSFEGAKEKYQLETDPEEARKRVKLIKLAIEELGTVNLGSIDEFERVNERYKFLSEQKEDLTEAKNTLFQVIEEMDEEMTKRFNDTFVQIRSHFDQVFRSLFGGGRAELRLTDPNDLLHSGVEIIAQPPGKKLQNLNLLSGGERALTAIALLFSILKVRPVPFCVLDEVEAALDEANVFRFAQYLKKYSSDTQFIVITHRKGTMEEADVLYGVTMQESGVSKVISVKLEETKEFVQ
T2 sequence (P51834 other isoform, or with tags, fused parts or gaps DEL439-486/DEL685-732): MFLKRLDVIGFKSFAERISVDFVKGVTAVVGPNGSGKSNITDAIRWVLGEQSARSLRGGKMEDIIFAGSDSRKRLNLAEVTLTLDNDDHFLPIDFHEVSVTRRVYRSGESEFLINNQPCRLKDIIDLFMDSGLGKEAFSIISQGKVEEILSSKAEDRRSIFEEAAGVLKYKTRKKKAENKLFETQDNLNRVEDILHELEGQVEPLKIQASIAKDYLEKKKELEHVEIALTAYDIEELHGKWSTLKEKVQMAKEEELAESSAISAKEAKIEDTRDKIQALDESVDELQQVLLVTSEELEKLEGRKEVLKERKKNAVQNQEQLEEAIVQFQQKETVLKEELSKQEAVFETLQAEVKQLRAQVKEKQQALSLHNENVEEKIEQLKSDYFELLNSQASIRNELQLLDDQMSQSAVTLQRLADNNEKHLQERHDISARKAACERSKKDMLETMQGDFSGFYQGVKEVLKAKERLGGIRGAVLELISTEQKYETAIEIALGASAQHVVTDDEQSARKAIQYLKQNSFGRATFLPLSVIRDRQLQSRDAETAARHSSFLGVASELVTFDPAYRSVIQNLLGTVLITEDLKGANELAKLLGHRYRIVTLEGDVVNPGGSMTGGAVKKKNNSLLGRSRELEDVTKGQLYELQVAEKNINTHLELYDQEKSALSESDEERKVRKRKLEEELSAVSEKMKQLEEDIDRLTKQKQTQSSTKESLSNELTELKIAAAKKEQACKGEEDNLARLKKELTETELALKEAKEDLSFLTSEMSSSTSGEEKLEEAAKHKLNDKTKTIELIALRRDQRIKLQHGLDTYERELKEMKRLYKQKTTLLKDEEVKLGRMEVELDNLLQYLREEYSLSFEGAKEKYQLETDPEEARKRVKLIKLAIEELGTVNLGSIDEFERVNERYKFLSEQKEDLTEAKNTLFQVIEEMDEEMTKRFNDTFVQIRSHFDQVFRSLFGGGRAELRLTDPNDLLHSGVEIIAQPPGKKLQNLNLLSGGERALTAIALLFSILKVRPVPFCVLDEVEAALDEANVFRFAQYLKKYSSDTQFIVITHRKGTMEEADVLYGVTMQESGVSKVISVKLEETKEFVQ
T1 sequence (P51834 other isoform, or with tags, fused parts or gaps DEL436-486/DEL685-735): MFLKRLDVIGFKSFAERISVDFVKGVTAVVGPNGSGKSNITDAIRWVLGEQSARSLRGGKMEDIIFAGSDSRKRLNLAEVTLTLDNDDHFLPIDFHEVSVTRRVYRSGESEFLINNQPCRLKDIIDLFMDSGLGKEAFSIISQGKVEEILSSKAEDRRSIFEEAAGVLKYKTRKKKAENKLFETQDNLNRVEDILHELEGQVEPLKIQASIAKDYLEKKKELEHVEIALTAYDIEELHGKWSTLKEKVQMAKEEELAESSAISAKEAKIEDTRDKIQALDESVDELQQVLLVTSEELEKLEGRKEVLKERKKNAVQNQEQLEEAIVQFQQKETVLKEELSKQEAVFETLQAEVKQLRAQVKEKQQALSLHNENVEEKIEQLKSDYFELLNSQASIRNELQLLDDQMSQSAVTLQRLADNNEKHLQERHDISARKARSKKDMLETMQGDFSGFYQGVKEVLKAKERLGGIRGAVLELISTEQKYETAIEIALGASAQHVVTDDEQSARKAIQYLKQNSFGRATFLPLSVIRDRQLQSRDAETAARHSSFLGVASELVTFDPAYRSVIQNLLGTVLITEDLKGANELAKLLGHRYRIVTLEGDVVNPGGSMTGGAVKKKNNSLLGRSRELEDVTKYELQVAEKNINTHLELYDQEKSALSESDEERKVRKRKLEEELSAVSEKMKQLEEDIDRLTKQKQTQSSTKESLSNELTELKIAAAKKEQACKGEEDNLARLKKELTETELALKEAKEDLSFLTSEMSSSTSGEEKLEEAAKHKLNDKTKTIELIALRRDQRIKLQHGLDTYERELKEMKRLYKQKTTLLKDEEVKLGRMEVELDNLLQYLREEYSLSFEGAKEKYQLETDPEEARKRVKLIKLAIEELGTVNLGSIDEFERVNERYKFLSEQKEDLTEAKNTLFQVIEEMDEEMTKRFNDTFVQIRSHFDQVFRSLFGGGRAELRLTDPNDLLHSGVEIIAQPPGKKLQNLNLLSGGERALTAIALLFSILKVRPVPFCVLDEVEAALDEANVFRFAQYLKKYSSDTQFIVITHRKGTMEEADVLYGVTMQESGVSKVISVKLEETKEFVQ

Nc1ncnc2c1ncn2[C@@H]1O[C@H](COP(=O)(O)OP(=O)(O)OP(=O)(O)O)[C@@H](O)[C@H]1O [ATP]
K0.5 [1]: We then purified Mini-Smc proteins to measure their ability to hydrolyze ATP in vitro
K0.5 [2]: We then purified Mini-Smc proteins to measure their ability to hydrolyze ATP in vitro
K0.5 [3]: We then purified Mini-Smc proteins to measure their ability to hydrolyze ATP in vitro
K0.5 [4]: Smc proteins with peptide insertions are functional ATPases
K0.5 [5]: Smc proteins with peptide insertions are functional ATPases
K0.5 [6]: We then purified Mini-Smc proteins to measure their ability to hydrolyze ATP in vitro
